# Experimental data as given in ChEMBL document CHEMBL5380790 (J Med Chem, 2023).
# The source made the active and inactive calls. The rule behind the calls is not given here.
# Tests used:
# [1] = Metabolic stability in human hepatocytes assessed as intrinsic clearance measured per million cells; type: ADME, cell-based, Hepatocyte; conditions: read-out: CLH
# [2] = Dissociation constant, pKa of the compound; type: physicochemical
# [3] = target: T1, Macrophage colony-stimulating factor 1 receptor (Homo sapiens, UniProt P07333); test: Inhibition of CSF1R (unknown origin) at 1 uM using 33P-ATP as substrate incubated for 120 mins by radiometric kinase assay
# [4] = target: Platelet-derived growth factor receptor beta (Homo sapiens, UniProt P09619); test: Inhibition of PDGFRB (unknown origin) using 33P-ATP as substrate incubated for 120 mins by radiometric kinase assay
# [5] = target: T2, Receptor-type tyrosine-protein kinase FLT3 (Homo sapiens, UniProt P36888); test: Inhibition of FLT3 (unknown origin) using 33P-ATP as substrate incubated for 120 mins by radiometric kinase assay
# T2 sequence (P36888 whole entry): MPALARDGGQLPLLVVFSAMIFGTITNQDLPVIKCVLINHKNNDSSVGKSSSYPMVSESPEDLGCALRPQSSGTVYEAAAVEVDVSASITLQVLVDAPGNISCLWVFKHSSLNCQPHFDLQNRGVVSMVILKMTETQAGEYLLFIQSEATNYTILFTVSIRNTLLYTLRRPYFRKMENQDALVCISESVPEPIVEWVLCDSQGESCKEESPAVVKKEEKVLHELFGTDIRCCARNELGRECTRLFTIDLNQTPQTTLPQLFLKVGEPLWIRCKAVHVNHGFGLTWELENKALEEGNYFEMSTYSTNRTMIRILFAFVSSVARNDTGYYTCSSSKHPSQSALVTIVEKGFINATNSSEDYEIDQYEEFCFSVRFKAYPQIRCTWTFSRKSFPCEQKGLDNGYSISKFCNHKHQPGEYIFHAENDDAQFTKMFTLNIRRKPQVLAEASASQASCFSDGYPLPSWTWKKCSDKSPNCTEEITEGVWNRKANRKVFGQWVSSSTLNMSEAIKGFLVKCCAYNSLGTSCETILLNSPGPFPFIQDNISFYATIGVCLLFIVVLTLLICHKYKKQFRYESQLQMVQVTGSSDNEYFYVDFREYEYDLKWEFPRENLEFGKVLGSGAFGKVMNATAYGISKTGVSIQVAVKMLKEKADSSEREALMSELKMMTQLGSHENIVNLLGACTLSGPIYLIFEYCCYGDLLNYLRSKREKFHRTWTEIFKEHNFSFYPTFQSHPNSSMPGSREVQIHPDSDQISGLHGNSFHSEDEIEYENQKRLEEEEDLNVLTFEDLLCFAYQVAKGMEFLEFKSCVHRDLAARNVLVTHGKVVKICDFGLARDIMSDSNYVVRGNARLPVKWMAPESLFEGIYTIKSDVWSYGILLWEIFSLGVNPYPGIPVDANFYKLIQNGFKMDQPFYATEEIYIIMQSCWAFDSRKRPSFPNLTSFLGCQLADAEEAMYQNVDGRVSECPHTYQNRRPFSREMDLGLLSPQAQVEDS
# [6] = target: T1, Macrophage colony-stimulating factor 1 receptor; test: Inhibition of CSF1R (unknown origin) using 33P-ATP as substrate incubated for 120 mins by radiometric kinase assay
# [7] = target: Receptor-type tyrosine-protein kinase FLT3 (Homo sapiens) (UniProt P36888); test: Binding affinity to human FLT3 in human HEK293 cells at 1 uM by NanoBRET assay; type: cell-based
# [8] = Volume of distribution at steady state in CD-1 mouse at 0.2 mg/kg, iv and measured upto 24 hrs; type: ADME, organism-based; conditions: in vivo, read-out: Vdss
# [9] = Volume of distribution at steady state in Han Wistar rat at 0.2 mg/kg, iv and measured upto 24 hrs; type: ADME, organism-based; conditions: in vivo, read-out: Vdss
# [10] = Half life in Han Wistar rat at 0.2 mg/kg, iv and measured upto 24 hrs; type: ADME, organism-based; conditions: in vivo
# [11] = Oral biovailability in Han Wistar rat at 30 mg/kg and measured upto 24 hrs; type: ADME, organism-based; conditions: in vivo
# [12] = test system: Mast/stem cell growth factor receptor Kit (Homo sapiens), P10721 [T670I]; test: Inhibition of recombinant human KIT T670I mutant in exon 14 using polyGT and ATP as substrate preincubated for 20 mins followed by substrate addition and measured after 240 mins by FRET assay; conditions: time 260.0 min
# Chain of Mast/stem cell growth factor receptor Kit (Homo sapiens), P10721 [T670I] (P10721 whole entry T670I): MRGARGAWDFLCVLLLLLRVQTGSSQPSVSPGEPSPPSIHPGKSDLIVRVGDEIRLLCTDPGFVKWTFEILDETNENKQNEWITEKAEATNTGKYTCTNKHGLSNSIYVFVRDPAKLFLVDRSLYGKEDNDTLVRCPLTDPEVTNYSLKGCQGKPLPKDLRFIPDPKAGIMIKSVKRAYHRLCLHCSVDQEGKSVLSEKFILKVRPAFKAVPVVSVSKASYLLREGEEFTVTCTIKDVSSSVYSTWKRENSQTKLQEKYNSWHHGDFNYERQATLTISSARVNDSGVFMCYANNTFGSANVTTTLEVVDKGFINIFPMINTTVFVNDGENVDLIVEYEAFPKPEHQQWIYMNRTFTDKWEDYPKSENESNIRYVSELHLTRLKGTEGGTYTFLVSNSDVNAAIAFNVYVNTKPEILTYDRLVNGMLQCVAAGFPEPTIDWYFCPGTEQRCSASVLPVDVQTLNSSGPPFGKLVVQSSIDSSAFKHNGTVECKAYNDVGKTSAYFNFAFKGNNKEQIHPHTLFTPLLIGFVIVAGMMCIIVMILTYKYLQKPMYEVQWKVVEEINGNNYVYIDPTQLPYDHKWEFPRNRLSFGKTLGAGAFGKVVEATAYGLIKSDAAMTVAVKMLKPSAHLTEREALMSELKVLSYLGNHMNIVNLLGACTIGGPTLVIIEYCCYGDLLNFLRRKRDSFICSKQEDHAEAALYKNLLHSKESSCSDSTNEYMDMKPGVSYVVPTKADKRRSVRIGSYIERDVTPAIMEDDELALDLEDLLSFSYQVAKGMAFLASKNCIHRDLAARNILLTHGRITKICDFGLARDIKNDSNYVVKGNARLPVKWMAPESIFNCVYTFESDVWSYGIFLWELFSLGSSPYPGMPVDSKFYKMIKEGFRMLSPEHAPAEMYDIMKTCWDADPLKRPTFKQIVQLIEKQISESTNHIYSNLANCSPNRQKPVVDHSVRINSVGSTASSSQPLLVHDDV
# T1 sequence (P07333 whole entry): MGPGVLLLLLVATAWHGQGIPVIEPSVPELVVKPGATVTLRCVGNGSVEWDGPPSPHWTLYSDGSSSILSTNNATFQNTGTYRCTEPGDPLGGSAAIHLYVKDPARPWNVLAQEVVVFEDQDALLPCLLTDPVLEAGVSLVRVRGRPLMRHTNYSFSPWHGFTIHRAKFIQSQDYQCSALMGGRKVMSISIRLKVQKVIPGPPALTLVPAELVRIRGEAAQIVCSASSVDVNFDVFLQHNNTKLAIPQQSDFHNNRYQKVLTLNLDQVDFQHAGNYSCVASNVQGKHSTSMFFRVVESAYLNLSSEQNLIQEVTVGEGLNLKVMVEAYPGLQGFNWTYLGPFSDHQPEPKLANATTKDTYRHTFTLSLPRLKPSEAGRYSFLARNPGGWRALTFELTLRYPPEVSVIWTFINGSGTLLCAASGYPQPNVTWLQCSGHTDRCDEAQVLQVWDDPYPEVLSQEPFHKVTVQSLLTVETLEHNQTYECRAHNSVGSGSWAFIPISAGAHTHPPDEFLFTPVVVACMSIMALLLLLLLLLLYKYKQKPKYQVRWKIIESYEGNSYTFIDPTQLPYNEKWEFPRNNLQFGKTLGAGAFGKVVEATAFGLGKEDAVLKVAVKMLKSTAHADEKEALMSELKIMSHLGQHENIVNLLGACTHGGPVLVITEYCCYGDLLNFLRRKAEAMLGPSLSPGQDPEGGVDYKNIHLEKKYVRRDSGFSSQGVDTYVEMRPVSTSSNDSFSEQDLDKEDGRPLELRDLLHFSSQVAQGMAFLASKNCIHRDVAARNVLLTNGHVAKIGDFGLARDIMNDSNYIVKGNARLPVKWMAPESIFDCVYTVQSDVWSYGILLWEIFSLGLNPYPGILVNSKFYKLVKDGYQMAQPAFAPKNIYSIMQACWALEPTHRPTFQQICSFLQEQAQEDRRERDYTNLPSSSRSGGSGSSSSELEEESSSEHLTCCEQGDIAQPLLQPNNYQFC
# Chain of Platelet-derived growth factor receptor beta (P09619 whole entry): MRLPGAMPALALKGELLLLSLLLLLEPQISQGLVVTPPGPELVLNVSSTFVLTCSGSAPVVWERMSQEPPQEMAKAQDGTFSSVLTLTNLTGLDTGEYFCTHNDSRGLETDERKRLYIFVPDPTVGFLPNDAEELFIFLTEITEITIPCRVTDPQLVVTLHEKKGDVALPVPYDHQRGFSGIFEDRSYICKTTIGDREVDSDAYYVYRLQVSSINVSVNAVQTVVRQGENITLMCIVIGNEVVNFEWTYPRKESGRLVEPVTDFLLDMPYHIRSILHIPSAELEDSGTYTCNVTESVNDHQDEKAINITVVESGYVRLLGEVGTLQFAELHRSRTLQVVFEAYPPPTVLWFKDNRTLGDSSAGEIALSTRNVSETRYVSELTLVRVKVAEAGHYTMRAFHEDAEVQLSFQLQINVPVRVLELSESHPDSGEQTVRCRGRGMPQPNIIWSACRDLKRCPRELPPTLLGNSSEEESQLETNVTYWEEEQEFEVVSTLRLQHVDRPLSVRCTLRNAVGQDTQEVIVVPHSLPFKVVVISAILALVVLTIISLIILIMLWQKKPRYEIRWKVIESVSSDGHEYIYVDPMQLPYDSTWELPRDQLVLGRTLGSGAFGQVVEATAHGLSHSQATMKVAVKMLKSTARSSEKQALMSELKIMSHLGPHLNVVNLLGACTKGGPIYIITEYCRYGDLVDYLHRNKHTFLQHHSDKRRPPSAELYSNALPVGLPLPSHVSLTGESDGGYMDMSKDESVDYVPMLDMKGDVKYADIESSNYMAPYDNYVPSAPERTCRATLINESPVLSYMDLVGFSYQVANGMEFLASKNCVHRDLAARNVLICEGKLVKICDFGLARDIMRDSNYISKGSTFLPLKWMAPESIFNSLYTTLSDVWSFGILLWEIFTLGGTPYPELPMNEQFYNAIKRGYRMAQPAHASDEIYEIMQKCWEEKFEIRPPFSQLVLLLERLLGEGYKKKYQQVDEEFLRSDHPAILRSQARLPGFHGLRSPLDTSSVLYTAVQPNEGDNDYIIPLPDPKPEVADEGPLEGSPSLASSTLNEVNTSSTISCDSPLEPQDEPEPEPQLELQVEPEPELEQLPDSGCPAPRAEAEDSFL
structure (smiles),measurement,setting,value
Cn1cc(-c2ccc(CNc3cc(-c4cnc5cc(OCCCN6CCCC6)ccn45)ncn3)cc2)cn1 [IDRX-42],hepatocyte CLint,[1],21 µL/min/1e6 cells
same,pKa,[2],9.7
same,inhibition,[3],> 80%
same,IC50,[4],2.6 nM
same,IC50,[5],141 nM
same,IC50,[6],5.5 nM
same,Activity,[7],45%
same,Vd,[8],11 L/kg
same,Vd,[9],23.2 L/kg
same,half-life,[10],6.8 h
same,bioavailability,[11],63%
same,inhibition,[12],inactive
